Results: patent US20200237852A1, “Small Molecule Enhancers of Paneth Cell Function and Differentiation” (Massachusetts Institute of Technology, priority 2019, published 2020)

What was measured:
Type in all cases: cell-based, C57BL/6 mice
[1] = tested on: ISC-enriched organoids in ENR+CD; assay: 384-well secondary screen in ENR+CD incl. early vs. full treatment, secreted LYZ (LYZ.NS, LYZ.S)
Source text: (§1) We again assessed treatment effect size with replicate SSMD (using a difference between well replicates and median assay value for all same-plate control wells—see Materials and Methods, High-throughput screening: 384-well secondary screen format and early vs. full treatment analysis) and hits were considered statistically validated by an SSMD greater than the false-positive-derived cutoffs (βα1=0.89 for 8 replicates with alpha=0.05; see Materials and Methods, High-throughput screening: 384-well secondary screen format and early vs. full treatment analysis) for both LYZ.NS and LYZ.S assays (FIG. 7A). Per this new cutoff, 10 dose-treatment combinations corresponding to 7 small molecules were chosen as hits, with every passing dose-treatment having a greater than 0 ATP effect size.
For 384-well plate high-throughput screening, ISC-enriched organoids were passaged and split to single cells with TyrpLE (Thermo Fisher Scientific) and cultured for 2-3 days in ENR+CVY prior to transfer to a “2.5-D” 384-well plate culture system. To prepare for “2.5D” plating, cell-laden Matrigel and media were homogenized via mechanical disruption and centrifuged at 300 g for 3 min at 4° C. Supernatant was removed and the pellet washed and spun in basal culture medium repeatedly until the cloudy Matrigel above the cell pellet was gone. On the final wash, pellet was resuspended in basal culture medium, the number of organoids counted, and the cell pellet was resuspended in ENR+CD medium at ˜7 clusters/μL. 384-well plates were first filled with 10 μL of 70% Matrigel (30% basal media) coating in each well using a Tecan Evo 150 Liquid Handling Deck, and allowed to gel at 37° C. for 5 minutes. Then 30 μL of cell-laden media was plated at the center of each well of 384-well plates with the liquid handler, and the plates were spun down at 50 g for 1 minute to embed organoids on the Matrigel surface. Compound libraries were pinned into prepped cell plates using 50 nL pins into 30 μL media/well. Cells were cultured at 37° C. with 5% CO2 for six days in ENR+CD medium supplemented with the tested compounds with a media change at three days. On day six, lysozyme secretion and cell viability were assessed using Lysozyme Assay Kit (EnzChek) and CellTiter-Glo 3D Cell Viability Assay (Promega), respectively, according to the manufacturers' protocols. Briefly, screen plates were washed 3× with FluoroBrite basal media (2 mM GlutaMAX and 10 mM HEPES in FluoroBrite DMEM (Thermo Fisher Scientific)) using a BioTek 406 plate washer with 10 min incubations followed by a 1 min centrifugation at 200 g to settle media between washes. After removal of the third wash, 30 μL of non-stimulated FluoroBrite basal media was added to each screen well using a Tecan Evo 150 Liquid Handling Deck from a non-stimulated treatment master plate, and plates were incubated for 30 min at 37° C. After 30 minutes, the top 15 μL of media from each well of the screen plate was transferred to a non-stimulated LYZ assay plate containing 15 μL of 20× DQ LYZ assay working solution using a Tecan Evo 150 Liquid Handling Deck. The non-stimulated LYZ assay plate was covered, shaken for 10 min, incubated for 50 min at 37° C., then fluorescence measured (shake 10 s; […]/518 nm) using a Tecan M1000 Plate Reader. After the media transfer to the non-stimulated LYZ assay plate, the remaining media was removed from the screen plate and 30 μL of Stimulated FluoroBrite basal media (supplemented with 10 μM CCh) was added to each screen well using a Tecan Evo 150 Liquid Handling Deck from a stimulated treatment master plate, and plates were incubated for 30 min at 37° C. After 30 minutes, the top 15 μL of media from each well of the screen plate was transferred to a stimulated LYZ assay plate containing 15 μL of 20× DQ LYZ assay working solution using a Tecan Evo 150 Liquid Handling Deck. […]

[2] = tested on: conventional organoid (ENR); assay: 384-well screen in conventional organoid (ENR), secreted LYZ (LYZ.NS, LYZ.S); settings: 6-day ENR+treatment, single treatment-dose
[3] = tested on: ISC-enriched organoids in ENR+CD; assay: 384-well secondary screen in ENR+CD, ATP assay; settings: 100 nM
Source text: as §1, with “Per this new cutoff, 10 dose-treatment combinations corresponding to 7 small molecules were chosen as hits, with every passing dose-treatment having a greater than 0 ATP effect size.” left out
For 384-well plate high-throughput screening, ISC-enriched organoids were passaged and split to single cells with TyrpLE (Thermo Fisher Scientific) and cultured for 2-3 days in ENR+CVY prior to transfer to a “2.5-D” 384-well plate culture system. […] On the final wash, pellet was resuspended in basal culture medium, the number of organoids counted, and the cell pellet was resuspended in ENR+CD medium at ˜7 clusters/μL. […] On day six, lysozyme secretion and cell viability were assessed using Lysozyme Assay Kit (EnzChek) and CellTiter-Glo 3D Cell Viability Assay (Promega), respectively, according to the manufacturers' protocols. […]

[4] = tested on: ENR+CD and ENR organoid populations; assay: Population RNA-seq of organoids; settings: 3 days of treatment, all media conditions controlled, FDR<0.01
Source text: To further assess the potential interaction of Wnt agonist CHIR99021 (C) and Notch inhibitor DAPT (D) with XPO1 inhibitors, we carried out an experiment where we assessed bulk organoid population transcriptomes (with RNA-seq) from multiple variations on growth media, XPO1 inhibitor, and duration of treatment (FIG. 12A). To characterize the resulting cell phenotypes, we used aggregate scores of geneset enrichment (based on module scoring as implemented in^7) from the in vivo Paneth and related enteroendocrine cell populations (genesets taken from^6). We see that again for both ENR+CD treated (FIG. 12B) and ENR treated (FIG. 12C) organoid populations, XPO1 inhibition drives enrichment in Paneth cell defining genes, principally at 3 days of treatment. […]
Population RNA-seq was performed using a derivative of the Smart-Seq2 protocol for single cells^1,2. […] Libraries were pooled post-Nextera and cleaned using Agencourt AMPure SPRI beads with successive 0.7× and 0.8× ratio SPRIs and sequenced with an Illumina 75 Cycle NextSeq500/550v2 kit (Illumina FC-404-2005) with loading density at 2.2 pM, with paired end 35 cycle read structure. Samples were sequenced at an average read depth of 8.44 million reads per sample and a total of 96 samples. […]

[5] = tested on: organoids differentiated under ENR+CV, ENR+CD, or ENR; assay: Western blotting for LYZ in organoids; settings: six days in ENR+CV
Source text: ISC-enriched organoids cultured in 3D Matrigel with ENRCV media were passaged to 24-well plate in 3D Matrigel with ENRCV. At day zero, media were replaced to ENR or ENRCD with or without indicated compounds, and media were replaced every other day. At day six, cells were harvested from Matrigel by mechanical disruption and suspended in basal media. Cell pellets were lysed with Pierce® IP lysis buffer (ThermoFisher, 87787) containing Halt™ Protease Inhibitor Cocktail, EDTA-Free (ThermoFisher, 87785) after 3-minute centrifuge at 300×g at 4° C. Cell extracts were resolved by NuPAGE® SDS-PAGE Gel system (ThermoFisher) and electroblotted onto polyvinylidene difluoride membranes using Criterion™ Blotter (Biorad). The membranes were blocked with 2% Blotting-Grade Blocker (Biorad, 1706404) in TBS-T (50 mM Tris-HCl, 150 mM NaCl, and 0.1% Tween 20, pH 8.0) and then probed with appropriate antibodies. Detection was performed using ECL Select™ Western Blotting Detection Reagent (Amersham, 45-000-999) and ImageQuant LAS4000 (GE Healthcare).

ENR+CD organoids = assay: Flow cytometry analysis, 3D culture, XPO1 inhibitors; settings: 6-day ENR+CD organoids
Experimental: ISC-enriched organoids cultured in 3D Matrigel with ENRCV media were passaged to 24-well plate in 3D Matrigel with ENRCV. At day zero, media were replaced to ENRCD with or without indicated compounds, and media were replaced every other day. At day six, cells were washed with basal media, and then harvested from Matrigel by mechanical disruption in TrypLE Express (ThermoFisher, 12605010) to remove Matrigel and dissociate organoids to single cells. After vigorous pipetting and incubation at 37° C. for 20 min, dissociated organoids were strained through a 35 μm cell strainer into a tube (Falcon, 352235). The cell filtrate was centrifuged again at 300×g for 3 min at 4° C. to pellet the cells. Cell pellets were resuspended in FACS buffer (2% FBS in PBS), and then transferred to an ultra low-bind 96-well plate (Corning, 7007). Cells were stained with Zombie-violet viability dye (BioLegend, 423107) at 100× for viability staining and/or antibody staining solution. FITC-conjugated antibody for lysozyme (Dako, […]) and APC-conjugated antibody for CD24 (BioLegend, 138505) were used at 100× dilution. Flow cytometry was performed using an LSR Fortessa (BD; Koch Institute Flow Cytometry Core at MIT). The data were analyzed using FlowJo v10 software.

Row | Compound | validation in secondary screen (SSMD above cutoff for both LYZ.NS and LYZ.S) ([1]; 6-day ENR+CD+treatment vs ENR+CD+DMSO, cutoff 0.89, 8 replicates) | LYZ.NS/ATP, early versus full treatment ([1]; ENR+CD, 100 nM) | LYZ.S/ATP, early versus full treatment ([1]; ENR+CD, 100 nM) | improvement in function, early (first 3 days) versus full 6-day treatment, LYZ.NS and LYZ.S assays ([1]; ENR+CD, maximal validated dose) | LYZ.NS reading versus ENR+DMSO [2] | ATP alone, early versus full treatment [3] | identity of the majority of significantly up-regulated genes relative to no treatment (DESeq2) [4] | LYZ abundance on a per-mass protein normalized basis (western blot) [5] | Paneth cell representation by flow cytometry (ENR+CD organoids)
1 | Cc1[nH]c(/C=C2\C(=O)Nc3ccc(S(=O)(=O)Cc4c(Cl)cccc4Cl)cc32)c(C)c1C(=O)N1CCC[C@@H]1CN1CCCC1 [PHA-665752] | multiple validated doses | significant difference (adj. p<0.05) between early and full | suggestive trend | significantly (adj. p<0.05) lower improvement in function with early treatment versus full | significantly lower LYZ.NS | no difference in ATP alone | – | – | –
2 | NC(=O)/C(=C/n1cnc(-c2cc(C(F)(F)F)cc(C(F)(F)F)c2)n1)c1cncnc1 [KPT-8602] | – | – | – | – | – | – | known Paneth cell lineage-defining genes | appreciably increase LYZ abundance | statistically significant increases in Paneth cell representation
